This experiment deals with T1, KPC-2 (Klebsiella pneumoniae, UniProt Q9F663).
T1 construct: recombinant KPC-2 from pET28a (bla KPC-2 gene, NCBI NG_049253.1), expressed in E. coli BL21(DE3), Ni column purified
As to the kind of experiment: nitrocefin hydrolysis assay with purified KPC-2, absorbance at […] nm. It is filed as biochemical.

T1 sequence (Q9F663 25-293 limits assumed): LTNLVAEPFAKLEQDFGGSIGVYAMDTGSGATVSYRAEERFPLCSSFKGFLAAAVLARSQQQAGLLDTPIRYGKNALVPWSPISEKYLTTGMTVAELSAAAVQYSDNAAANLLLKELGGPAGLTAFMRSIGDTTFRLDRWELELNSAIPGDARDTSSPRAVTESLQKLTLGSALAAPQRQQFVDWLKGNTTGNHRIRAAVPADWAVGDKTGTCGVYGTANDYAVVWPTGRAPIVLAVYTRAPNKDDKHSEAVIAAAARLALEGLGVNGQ

For the compound `C[C@H]1[C@H](C)CC[C@]2(C(=O)O)CC[C@]3(C)C(=CC[C@@H]4[C@@]5(C)C[C@@H](O)[C@H](O)C(C)(C)[C@@H]5CC[C@]43C)[C@H]12` [CA, corosolic acid], half-maximal inhibition (IC50) was put at 4.97 µM.

The record behind these values is publication PMC7363806, “Characterization of Corosolic Acid as a KPC-2 Inhibitor That Increases the Susceptibility of KPC-2-Positive Bacteria to Carbapenems” (Frontiers in Pharmacology, 2020).
